Measured values as given in patent US20060004051A1, “Compounds” (priority 2002, published 2006).

Tests used:
[1] = system: TGF-β signalling (PAI-1 promoter linked to firefly luciferase) in HepG2 cells; experiment: Cellular transcriptional assay (PAI-1 promoter luciferase reporter, TGF-β stimulated); settings: for IC50: Homo sapiens, HepG2, read-out: TGF-β cellular activity (IC50)
Description: The assay was performed in HepG2 cells stably transfected with the PAI-1 promoter (known to be a strong TGF-β responsive promoter) linked to a luciferase (firefly) reporter gene. The compounds were selected on their ability to inhibit luciferase activity in cells exposed to TGF-β. In addition, cells were transfected with a second luciferase (Renilla) gene which was not driven by a TGF-β responsive promoter and was used as a toxicity control.
96 well microplates were seeded, using a multidrop apparatus, with the stably transfected cell line at a concentration of 35000 cells per well in 200 μl of serum-containing medium. These plates were placed in a cell incubator.
18 to 24 hours later (Day 2), cell-incubation procedure was launched. Cells were incubated with TGF-β and a candidate compound at concentrations in the range 50 nM to 10 μM (final concentration of DMSO 1%). The final concentration of TGF-β (rhTGFβ-1) used in the test was 1 ng/mL. […] The final volume of the test reaction was 150 μl. Each well contained only one candidate compound and its effect on the PAI-1 promoter was monitored.
Columns 11 and 12 were employed as controls. Column 11 contained 8 wells in which the cells were incubated in the presence of TGF-β, without a candidate compound. Column 11 was used to determine the ‘reference TGF-β induced firefly luciferase value’ against which values measured in the test wells (to quantify inhibitory activity) were compared. In wells A12 to D12, cells were grown in medium without TGF-β. […]
12 to 18 hours later (day 3), the luciferase quantification procedure was launched. […] Following agitation (15 to 30 mins), luciferase activities of the plates were read in a dual-injector luminometer (BMG lumistar). For this purpose, 50 μl of luciferase assay reagent and 50 μl of ‘Stop & Glo’ buffer were injected sequentially to quantify the activities of both luciferases. […] For each of the compounds tested, a concentration response curve was constructed from which an IC50 value was determined graphically.

[2] = target: T1, recombinant GST-ALK5 (residues 198-503) (Homo sapiens, UniProt P36897); experiment: Alk5 fluorescence polarization assay; format: binding; settings: rhodamine green-labelled ligand 1 nM, ALK5 10 nM, read-out: ALK5 receptor modulator activity (IC50)
T1 construct: recombinant GST-ALK5 (residues 198-503)
T1 sequence (P36897 198-503): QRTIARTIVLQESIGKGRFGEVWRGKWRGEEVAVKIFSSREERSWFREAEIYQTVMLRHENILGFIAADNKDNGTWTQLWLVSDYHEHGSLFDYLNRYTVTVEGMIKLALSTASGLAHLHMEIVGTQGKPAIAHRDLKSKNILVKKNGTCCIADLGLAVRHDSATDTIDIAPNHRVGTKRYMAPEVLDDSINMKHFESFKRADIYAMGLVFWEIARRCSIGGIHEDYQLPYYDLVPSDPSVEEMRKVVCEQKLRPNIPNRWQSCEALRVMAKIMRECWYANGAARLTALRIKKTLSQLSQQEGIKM
Description: Assay 2 (Alk5 Fluorescence Polarization Assay)
Kinase inhibitor compounds conjugated to fluorophores, can be used as fluorescent ligands to monitor ATP competitive binding of other compounds to a given kinase. The increase in depolarization of plane polarized light, caused by release of the bound ligand into solution, is measured as a polarization/anisotropy value. This protocol details the use of a rhodamine green-labelled ligand for assays using recombinant GST-ALK5 (residues 198-503).
Assay buffer components: 62.5 mM Hepes pH 7.5 (Sigma H-4034), 1 mM DTT (Sigma D-0632), 12.5 mM MgCl2 (Sigma M-9272), 1.25 mM CHAPS (Sigma C-3023). […]
ALK5 was added to assay buffer containing the above components and 1 nM of the rhodamine green-labelled ligand so that the final ALK5 concentration was 10 nM based on active site titration of the enzyme. […] The plates were read immediately on a LJL Acquest fluorescence reader (Molecular Devices, serial number AQ1048) with excitation, emission, and dichroic filters of 485 nm, 530 nm, and 505 nm, respectively. The fluorescence polarization for each well was calculated by the Acquest reader and then imported into curve fitting software for construction of concentration response curves. The normalized response was determined relative to the high controls (1 μl DMSO in column 12, rows A-D) and the low controls (1 μl of control compound in column 12, rows E-H). […]

SMILES	melting point [°C]	also measured
O=C1C=CCC1 [CPO, Cyclopentenone, reference compound]		firefly and renilla luciferase activities (toxicity control) ([1]; 500 μM CPO with TGF-β, relative to TGF-β only): around 50%
Nc1nc(-c2ccccn2)c(-c2ccnc(-c3ccc(N4CCOCC4)cc3)c2)s1 [Example 1]	246	
Cc1cccc(-c2nc(N)sc2-c2ccnc(-c3ccc(S(C)(=O)=O)cc3)c2)n1 [Example 2, 5-{2-[4-(methanesulfonyl)phenyl]pyridin-4-yl}-4-(6-methylpyridin-2-yl)-1,3-thiazol-2-amine]	236 to 238	
CCN1CCN(c2ccc(-c3cc(-c4sc(N)nc4-c4cccc(C)n4)ccn3)cc2)CC1 [Example 3]	230 to 232	IC50 [2]: 14 nM; IC50 [1]: 29 nM
Cc1cccc(-c2nc(N)sc2-c2ccnc(-c3ccc(N4CCOCC4)cc3)c2)n1 [Example 4, 5-{2-[4-(morpholin-4-yl)phenyl]pyridinyl-4-yl}-4-(6-methylpyridin-2-yl)-1,3-thiazol-2-amine]	250 to 252	
Cc1cccc(-c2nc(N)sc2-c2ccnc(-c3ccc(C(=O)N4CCOCC4)cc3)c2)n1 [Example 5, 5-{2-[4-((morpholin-4-yl)carbonyl)phenyl]pyridin-4-yl]-4-(6-methylpyridin-2-y)-1,3-thiazol-2-amine]	158 to 160	
Cc1cccc(-c2nc(N)sc2-c2ccnc(-c3ccc(C(=O)NC4CCOCC4)cc3)c2)n1 [Example 6, 5-{2-[4((tetrahydropyran-4-yl)-aminocarbonyl)-phenyl]pyridin-4-yl}-4-(6-methylpyridin-2-yl)-1,3-thiazol-2-amine]	230 to 232	
Cc1cccc(-c2nc(N)sc2-c2ccnc(-c3ccc(CN4CCOCC4)cc3)c2)n1 [Example 7, 5-{2-[4-((morpholin-4-yl)methyl)phenyl]pyridin-4-yl}-4-(6-methylpyridin-2-yl)-1,3-thiazol-2-amine]	190 to 192	
COc1ccc(-c2cc(-c3sc(N)nc3-c3cccc(C)n3)ccn2)cc1 [Example 8, 5-{2-[4methoxyphenyl]pyridin-4-yl}-4-(6methylpyridin-2-yl)-1,3-thiazol-2-amine]	188 to 190	
Cc1cccc(-c2nc(N)sc2-c2ccnc(-c3ccc(OC(F)(F)F)cc3)c2)n1 [Example 9, 5-{2-[4-trifluoromethoxyphenyl]pyridin-4-yl}-4-(6-methylpyridin-2-yl)-1,3-thiazol-2-amine]	222 to 224	
Cc1cccc(-c2nc(N)sc2-c2ccnc(-c3ccc(OCCN4CCCC4)cc3)c2)n1 [Example 11, 5-{2-[4-(2-(pyrrolidin-1-yl)-ethoxy)-phenyl]pyridin-4-yl}-4-(6-methylpyridin-2-yl)-1,3-thiazol-2-amine]	176 to 178	
Cc1cccc(-c2nc(N)sc2-c2ccnc(-c3ccc(OCc4cn(C)cn4)cc3)c2)n1 [Example 12, 5-{2-[4-((1-methyl-imidazol-4-yl)methyloxy)-phenyl]pyridin-4-yl}-4-(6-methylpyridin-2-yl)-1,3-thiazol-2-amine]	226 to 228	
Cc1cccc(-c2sc(N)nc2-c2ccnc(-c3ccc(Cl)cc3)c2)n1 [Example 13, 4-[2-(4-chlorophenyl)pyridin-4-yl]-5-(6-methylpyridin-2-yl]-1,3-thiazol-2-amine]	222	
Cc1cccc(-c2sc(N)nc2-c2ccnc(-c3ccc(OC(F)(F)F)cc3)c2)n1 [Example 14, 4-[2-(4-trifluoromethoxyphenyl)pyridin-4-yl]-5-[6-methylpyridin-2-yl]-1,3-thiazol-2-amine]	232	
Cc1cccc(-c2sc(N)nc2-c2ccnc(-c3ccc(C(=O)N4CCOCC4)cc3)c2)n1 [Example 17]	246	
CCN1CCN(C(=O)c2ccc(-c3cc(-c4nc(N)sc4-c4cccc(C)n4)ccn3)cc2)CC1 [Example 18]	224	
Cc1cccc(-c2sc(N)nc2-c2ccnc(-c3ccc(CN4CCOCC4)cc3)c2)n1 [Example 19, 4-[2-(4-((morpholin-4-yl)methyl)phenyl)pyridin-4-yl]-5-[6-methylpyridin-2-yl]-1,3-thiazol-2-amine]	236	
Cc1cccc(-c2sc(N)nc2-c2ccnc(-c3ccc(N4CCOCC4)cc3)c2)n1 [Example 20, 4-[2-(4-(morpholin-4-yl)phenyl)pyridin-4-yl]-5-[6-methylpyridin-2-yl]-1,3-thiazol-2-amine]	246	
Cc1cccc(-c2sc(N)nc2-c2ccnc(-c3ccc(OCCN4CCCC4)cc3)c2)n1 [Example 21, 4-[2-(4-(2-(pyrolidin-1-yl)-ethoxy)phenyl)pyridin-4-yl]-5-[6-methylpyridin-2-yl]-1,3-thiazol-2-amine]	150	
Cc1cccc(-c2sc(N)nc2-c2ccnc(-c3ccc(OCC(N)=O)cc3)c2)n1 [Example 22, 4-[2-(4-(aminocarbonylmethyloxy)phenyl)pyridin-4-yl]-5-[6-methylpyridin-2-yl]-1,3-thiazol-2-amine]	191	
Cc1cccc(-c2sc(N)nc2-c2ccnc(-c3ccc(OCC(=O)N4CCOCC4)cc3)c2)n1 [Example 23, 4-[2-(4-((morpholin-4-yl)carbonylmethyloxy)phenyl)pyridin-4-yl]-5-[6-methylpyridin-2-yl]-1,3-thiazol-2-amine]	172	
Cc1cccc(-c2sc(N)nc2-c2ccnc(-c3ccc(CN4CCCC4)cc3)c2)n1 [Example 24, 4-[2-(4-((pyrrolidin-1-yl)methyl)phenyl)pyridin-4-yl]-5-[6-methylpyridin-2-yl]-1,3-thiazol-2-amine]	200	
Cc1cccc(-c2sc(N)nc2-c2ccnc(-c3ccc(CN(C)C)cc3)c2)n1 [Example 25, 4-[2-(4-((dimethylamino)methyl)phenyl)pyridin-4-yl]-5-[6-methylpyridin-2-yl]-1,3-thiazol-2-amine]	210	IC50 [2]: 29 nM; IC50 [1]: 31 nM
Nc1nc(-c2ccnc(-c3ccc(C(=O)NC4CCOCC4)cc3)c2)c(-c2ccccn2)s1 [Example 26, 4-[2-(4-((tetrahydropyran-4-yl)aminocarbonyl)phenyl)pyridin-4-yl]-5-[pyridin-2-yl]-1,3-thiazol-2-amine]	268	
Nc1nc(-c2ccnc(-c3ccc(N4CCOCC4)cc3)c2)c(-c2ccccn2)s1 [Example 27, 4-[2-(4-(morpholin-4-yl)phenyl)pyridin-4-yl]-5-[pyridin-2-yl]-1,3-thiazol-2-amine]	276	
